{"source": "patent US10117944B2", "about": "“Targeted therapeutics” (Madrigal Pharmaceuticals, Inc., priority 2014, dated 2018)", "key": {"[1]": {"assay": "Stability of SDC-TRAPs in mouse plasma", "assay_type": "in vitro ADME", "settings": "37° C.", "procedure": "SDC-TRAPs were incubated in mouse plasma for 1 h at 37° C. and assayed for integrity at 0, 0.25, 0.5 and 1 h to assess the stability of the SDC-TRAP, e.g., as compared to the effector and targeting compounds. Compound stability was determined using […]."}, "[2]": {"system": "HER2", "assay": "HER2 degradation assay with BT-474 cell line", "assay_type": "cell-based, human", "settings": "BT-474 cells, overnight incubation"}, "[3]": {"settings": "estimated; cited from earlier work"}, "[4]": {"settings": "phase I trial; cited from earlier work"}}}
{"smiles": "CCNC(=O)c1nnc(-c2cc(C(C)C)c(O)cc2O)n1-c1ccc(C(=O)N(C)CC[C@]23OB([C@H](CC(C)C)NC(=O)[C@H](Cc4ccccc4)NC(=O)c4cnccn4)O[C@H]2C[C@H]2C[C@@H]3C2(C)C)cc1", "note": "[SDC-TRAP-0244, N—((S)-1-(((R)-1-((3aR,4R,6R,7aS)-3a-(2-(4-(3-(2,4-dihydroxy-5-isopropylphenyl)-5-(ethylcarbamoyl)-4H-1,2,4-triazol-4-yl)-N-methylbenzamido)ethyl)-5,5-dimethylhexahydro-4,6-methanobenzo[d][1,3,2]dioxaborol-2-yl)-3-methylbutyl)amino)-1-oxo-3-phenylpropan-2-yl)pyrazine-2-carboxamide]", "values": [{"measurement": "% Remaining (1 h)", "setting": "[1]", "value": 62.9, "unit": "%"}, {"measurement": "IC50", "setting": "[2]", "value": 100, "unit": "nM"}]}
{"smiles": "CCNC(=O)c1nnc(-c2cc(C(C)C)c(O)cc2O)n1-c1ccc(Oc2ccc(C(=O)NCCCCCCC3(C)OB([C@H](CC(C)C)NC(=O)[C@H](Cc4ccccc4)NC(=O)c4cnccn4)OC3(C)C)cc2)cc1", "note": "(stereo partly drawn) [SDC-TRAP-0246, N-((2S)-1-(((1R)-1-(4-(6-(4-(4-(3-(2,4-dihydroxy-5-isopropylphenyl)-5-(ethylcarbamoyl)-4H-1,2,4-triazol-4-yl)phenoxy)benzamido)hexyl)-4,5,5-trimethyl-1,3,2-dioxaborolan-2-yl)-3-methylbutyl)amino)-1-oxo-3-phenylpropan-2-yl)pyrazine-2-carboxamide]", "values": [{"measurement": "% Remaining (1 h)", "setting": "[1]", "value": 63.6, "unit": "%"}, {"measurement": "IC50", "setting": "[2]", "value": 110, "unit": "nM"}]}
{"smiles": "CCNC(=O)c1nnc(-c2cc(C(C)C)c(O)cc2O)n1-c1ccc(C(=O)NCCCCCCC2(C)OB([C@H](CC(C)C)NC(=O)[C@H](Cc3ccccc3)NC(=O)c3cnccn3)OC2(C)C)cc1", "note": "(stereo partly drawn) [SDC-TRAP-0247, N-((2S)-1-(((1R)-1-(4-(6-(4-(3-(2,4-dihydroxy-5-isopropylphenyl)-5-(ethylcarbamoyl)-4H-1,2,4-triazol-4-yl)benzamido)hexyl)-4,5,5-trimethyl-1,3,2-dioxaborolan-2-yl)-3-methylbutyl)amino)-1-oxo-3-phenylpropan-2-yl)pyrazine-2-carboxamide]", "values": [{"measurement": "% Remaining (1 h)", "setting": "[1]", "value": 11.8, "unit": "%"}, {"measurement": "IC50", "setting": "[2]", "value": 36, "unit": "nM"}]}
{"smiles": "CCNC(=O)c1nnc(-c2cc(C(C)C)c(O)cc2O)n1-c1ccc(Oc2ccc(C(=O)NCC[C@]34OB([C@H](CC(C)C)NC(=O)[C@H](Cc5ccccc5)NC(=O)c5cnccn5)O[C@H]3C[C@@H]3C[C@H]4C3(C)C)cc2)cc1", "note": "[SDC-TRAP-0248, N—((S)-1-(((R)-1-((3aR,4S,6S,7aS)-3a-(2-(4-(4-(3-(2,4-dihydroxy-5-isopropylphenyl)-5-(ethylcarbamoyl)-4H-1,2,4-triazol-4-yl)phenoxy)benzamido)ethyl)-5,5-dimethylhexahydro-4,6-methanobenzo[d][1,3,2]dioxaborol-2-yl)-3-methylbutyl)amino)-1-oxo-3-phenylpropan-2-yl)pyrazine-2-carboxamide]", "values": [{"measurement": "% Remaining (1 h)", "setting": "[1]", "value": 54.8, "unit": "%"}, {"measurement": "IC50", "setting": "[2]", "value": 37, "unit": "nM"}]}
{"smiles": "CCNC(=O)c1nnc(-c2cc(C(C)C)c(O)cc2O)n1-c1ccc(Oc2ccc(C(=O)N3CCC4(CC3)OB([C@H](CC(C)C)NC(=O)[C@H](Cc3ccccc3)NC(=O)c3cnccn3)OC4(C)C)cc2)cc1", "note": "[SDC-TRAP-0249, N—((S)-1-(((R)-1-(8-(4-(4-(3-(2,4-dihydroxy-5-isopropylphenyl)-5-(ethylcarbamoyl)-4H-1,2,4-triazol-4-yl)phenoxy)benzoyl)-4,4-dimethyl-1,3-dioxa-8-aza-2-boraspiro[4.5]decan-2-yl)-3-methylbutyl)amino)-1-oxo-3-phenylpropan-2-yl)pyrazine-2-carboxamide]", "values": [{"measurement": "% Remaining (1 h)", "setting": "[1]", "value": 8.93, "unit": "%"}, {"measurement": "IC50", "setting": "[2]", "value": 36, "unit": "nM"}]}
{"smiles": "CC(C)C[C@H](NC(=O)[C@H](Cc1ccccc1)NC(=O)c1cnccn1)B1OC(C)(C)C2(CCN(C(=O)CCn3ccc4cc(-n5c(O)nnc5-c5cc(C(C)C)c(O)cc5O)ccc43)CC2)O1", "note": "[SDC-TRAP-0250, N—((S)-1-(((R)-1-(8-(3-(5-(3-(2,4-dihydroxy-5-isopropylphenyl)-5-hydroxy-4H-1,2,4-triazol-4-yl)-1H-indol-1-yl)propanoyl)-4,4-dimethyl-1,3-dioxa-8-aza-2-boraspiro[4.5]decan-2-yl)-3-methylbutyl)amino)-1-oxo-3-phenylpropan-2-yl)pyrazine-2-carboxamide]", "values": [{"measurement": "% Remaining (1 h)", "setting": "[1]", "value": 27.0, "unit": "%"}, {"measurement": "IC50", "setting": "[2]", "value": 2120, "unit": "nM"}]}
{"smiles": "CCNC(=O)c1nnc(-c2cc(C(C)C)c(O)cc2O)n1-c1ccc(C(=O)N2CCC3(CC2)OB([C@H](CC(C)C)NC(=O)[C@H](Cc2ccccc2)NC(=O)c2cnccn2)OC3(C)C)cc1", "note": "[SDC-TRAP-0251, N—((S)-1-(((R)-1-(8-(4-(3-(2,4-dihydroxy-5-isopropylphenyl)-5-(ethylcarbamoyl)-4H-1,2,4-triazol-4-yl)benzoyl)-4,4-dimethyl-1,3-dioxa-8-aza-2-boraspiro[4.5]decan-2-yl)-3-methylbutyl)amino)-1-oxo-3-phenylpropan-2-yl)pyrazine-2-carboxamide]", "values": [{"measurement": "% Remaining (1 h)", "setting": "[1]", "value": 13.4, "unit": "%"}, {"measurement": "IC50", "setting": "[2]", "value": "> 5000", "unit": "nM"}]}
{"smiles": "CC(C)C[C@H](NC(=O)[C@H](Cc1ccccc1)NC(=O)c1cnccn1)B(O)O", "note": "[bortezomib]", "values": [{"measurement": "Patients presenting with peripheral neuropathy", "setting": "[3]", "value": "more than 40%"}, {"measurement": "Dose at which dose-limiting toxic effects are observed", "setting": "[4]", "value": 1.5, "unit": "mg/m^2"}]}
